Test results reported in publication PMC8820820, “Feasibility and safety of targeting mitochondria for cancer therapy – preclinical characterization of gamitrinib, a first-in-class, mitochondriaL-targeted small molecule Hsp90 inhibitor” (Cancer Biology & Therapy, 2022).
pIC50: −log10 of the molar value.

Legend:
[1] = target: T1, CYP1A2 (Homo sapiens, UniProt P05177); experiment: CYP inhibition in liver microsomes; assay type: in vitro ADME
T1 construct: tissue Bioreclamation IVT; host or cells: pooled human liver microsomes
T1 sequence (P05177 1-516): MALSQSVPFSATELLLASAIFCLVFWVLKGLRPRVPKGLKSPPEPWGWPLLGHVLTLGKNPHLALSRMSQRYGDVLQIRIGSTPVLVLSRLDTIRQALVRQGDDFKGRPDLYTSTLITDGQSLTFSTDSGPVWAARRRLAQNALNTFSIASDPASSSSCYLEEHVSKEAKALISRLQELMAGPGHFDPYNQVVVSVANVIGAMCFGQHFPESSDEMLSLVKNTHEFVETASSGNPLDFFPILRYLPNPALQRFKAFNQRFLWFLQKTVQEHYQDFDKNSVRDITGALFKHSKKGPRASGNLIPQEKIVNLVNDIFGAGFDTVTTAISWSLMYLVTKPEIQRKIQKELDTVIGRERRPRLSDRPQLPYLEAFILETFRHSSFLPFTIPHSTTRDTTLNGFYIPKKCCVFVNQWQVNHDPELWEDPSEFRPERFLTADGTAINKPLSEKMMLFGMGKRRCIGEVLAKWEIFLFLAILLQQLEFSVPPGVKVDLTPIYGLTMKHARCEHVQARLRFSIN
Source text: CYP inhibition in liver microsomes.

[2] = test system: Caco-2 intestinal cells; experiment: Bidirectional Caco2 cell monolayer permeability; details: Caco-2
Experimental: Caco-2 and HEK293 cells were obtained from the American Type Culture Collection (ATCC, Manassas, VA) and grown in culture according to the supplier’s specifications. In some experiments, HEK293 cells were stably transfected with hERG cDNA, and polyclonal cultures were maintained in the presence of 250 µg/ml geneticin (G418).
Bidirectional Caco2 cell monolayer permeability. Caco2 cells (2x10^4/well) were seeded onto apical chambers of a 24-multiwell insert plate and incubated at 37°C in 5% CO2. After 21 d, the transepithelial electrical resistance (TEER) in ohms was read for each insert well as a quality control for monolayer integrity (>900 ohms or 300 ohms cm^2). The cell monolayers were incubated with 400 µL transport buffer on the apical (A) and 1.2 mL on the basolateral (B) sides for 30 min. After preincubation, dosing solution was added to the apical (400 µL, A-to-B, donor) or basolateral sides (1.2 mL, B-to-A, donor) or receiving buffer to the apical (400 µL, B-to-A, receiver) or basolateral sides (1.2 mL, A-to-B, receiver) for 90 min at 37°C in 5% CO2. […] Papp’A>B (nm/s) was calculated with Equation 1.
Papp Efflux Ratio (ER) was calculated with Equation 2.
ER=Papp,B>APapp,A>BEquation 2: […]
Propranolol (high permeability marker, non-P-gp substate) and digoxin (P-gp substrate) were used as controls.

[3] = target: Nav1.5 (Homo sapiens, UniProt Q14524); experiment: Ion channel screening; assay type: cell-based; details: 10 µM, pulse 26
Source text: (§1) Ion channel screening. […] The parameters measured were the maximum inward current evoked on stepping to -20 mV from the 1st and 26th pulse. Human Kv4.3/KChIP2 currents were evoked from a holding potential of -80 mV by a series of four 500 msec pulses to 0 mV using a 1000 msec interval between pulses. The parameter measured was the amplitude of the outward current 50 msec after the onset of the 4th voltage step to 0 mV. […] Human Kv1.5 currents were evoked by a single pulse from a holding potential of -80 mV to a potential of 0 mV for 4 sec before returning to -80 mV. The parameters measured were the maximum amplitude of outward currents evoked at the beginning of the voltage pulse and at the end of the voltage step from -80 mV to 0 mV. Human KCNQ1/minK currents were evoked by a single pulse delivered from a holding potential of -80 mV to +60 mV for 4 sec before returning to -80 mV. The parameter measured was the maximum outward current evoked on stepping to +60 mV from the holding potential of -80 mV. hERG currents were evoked by a three-pulse protocol where voltage was first stepped to +40 mV for two sec from a holding potential of –80 mV to inactivate hERG channels. […] The parameter measured was the maximum inward current evoked upon stepping to -110 mV from the holding potential of -30 mV. […]

[4] = target: T2, Kv4.3/KChIP2 (Homo sapiens, UniProt Q9UK17); experiment: Ion channel screening; assay type: cell-based; details: 10 µM
T2 sequence (Q9UK17 1-655): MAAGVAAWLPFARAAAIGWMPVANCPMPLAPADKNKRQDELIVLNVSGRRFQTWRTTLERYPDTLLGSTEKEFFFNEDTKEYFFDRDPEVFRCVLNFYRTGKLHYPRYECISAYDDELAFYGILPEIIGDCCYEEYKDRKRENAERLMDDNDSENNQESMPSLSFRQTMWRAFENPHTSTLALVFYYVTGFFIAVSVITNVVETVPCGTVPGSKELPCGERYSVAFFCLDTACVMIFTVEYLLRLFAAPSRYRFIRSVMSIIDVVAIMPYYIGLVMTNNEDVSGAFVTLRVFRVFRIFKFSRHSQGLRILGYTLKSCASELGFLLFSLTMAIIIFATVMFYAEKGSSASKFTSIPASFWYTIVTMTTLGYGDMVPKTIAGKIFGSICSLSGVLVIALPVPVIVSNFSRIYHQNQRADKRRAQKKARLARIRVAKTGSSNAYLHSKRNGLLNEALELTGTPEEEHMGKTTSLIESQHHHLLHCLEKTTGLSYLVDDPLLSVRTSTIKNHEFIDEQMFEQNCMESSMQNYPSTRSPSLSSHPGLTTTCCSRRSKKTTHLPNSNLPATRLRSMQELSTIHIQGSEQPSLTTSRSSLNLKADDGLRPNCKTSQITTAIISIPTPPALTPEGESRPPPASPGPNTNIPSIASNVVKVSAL
T2 sequence (Q9NS61 1-270 partner): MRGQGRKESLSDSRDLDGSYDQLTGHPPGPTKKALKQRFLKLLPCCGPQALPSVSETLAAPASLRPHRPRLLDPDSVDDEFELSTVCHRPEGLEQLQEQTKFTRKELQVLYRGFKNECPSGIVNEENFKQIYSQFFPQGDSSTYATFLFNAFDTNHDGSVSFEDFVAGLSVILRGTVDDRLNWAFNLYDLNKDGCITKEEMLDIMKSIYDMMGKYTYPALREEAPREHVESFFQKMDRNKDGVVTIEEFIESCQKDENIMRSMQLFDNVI
Source text: as §1

Chain of Nav1.5 (Q14524 whole entry): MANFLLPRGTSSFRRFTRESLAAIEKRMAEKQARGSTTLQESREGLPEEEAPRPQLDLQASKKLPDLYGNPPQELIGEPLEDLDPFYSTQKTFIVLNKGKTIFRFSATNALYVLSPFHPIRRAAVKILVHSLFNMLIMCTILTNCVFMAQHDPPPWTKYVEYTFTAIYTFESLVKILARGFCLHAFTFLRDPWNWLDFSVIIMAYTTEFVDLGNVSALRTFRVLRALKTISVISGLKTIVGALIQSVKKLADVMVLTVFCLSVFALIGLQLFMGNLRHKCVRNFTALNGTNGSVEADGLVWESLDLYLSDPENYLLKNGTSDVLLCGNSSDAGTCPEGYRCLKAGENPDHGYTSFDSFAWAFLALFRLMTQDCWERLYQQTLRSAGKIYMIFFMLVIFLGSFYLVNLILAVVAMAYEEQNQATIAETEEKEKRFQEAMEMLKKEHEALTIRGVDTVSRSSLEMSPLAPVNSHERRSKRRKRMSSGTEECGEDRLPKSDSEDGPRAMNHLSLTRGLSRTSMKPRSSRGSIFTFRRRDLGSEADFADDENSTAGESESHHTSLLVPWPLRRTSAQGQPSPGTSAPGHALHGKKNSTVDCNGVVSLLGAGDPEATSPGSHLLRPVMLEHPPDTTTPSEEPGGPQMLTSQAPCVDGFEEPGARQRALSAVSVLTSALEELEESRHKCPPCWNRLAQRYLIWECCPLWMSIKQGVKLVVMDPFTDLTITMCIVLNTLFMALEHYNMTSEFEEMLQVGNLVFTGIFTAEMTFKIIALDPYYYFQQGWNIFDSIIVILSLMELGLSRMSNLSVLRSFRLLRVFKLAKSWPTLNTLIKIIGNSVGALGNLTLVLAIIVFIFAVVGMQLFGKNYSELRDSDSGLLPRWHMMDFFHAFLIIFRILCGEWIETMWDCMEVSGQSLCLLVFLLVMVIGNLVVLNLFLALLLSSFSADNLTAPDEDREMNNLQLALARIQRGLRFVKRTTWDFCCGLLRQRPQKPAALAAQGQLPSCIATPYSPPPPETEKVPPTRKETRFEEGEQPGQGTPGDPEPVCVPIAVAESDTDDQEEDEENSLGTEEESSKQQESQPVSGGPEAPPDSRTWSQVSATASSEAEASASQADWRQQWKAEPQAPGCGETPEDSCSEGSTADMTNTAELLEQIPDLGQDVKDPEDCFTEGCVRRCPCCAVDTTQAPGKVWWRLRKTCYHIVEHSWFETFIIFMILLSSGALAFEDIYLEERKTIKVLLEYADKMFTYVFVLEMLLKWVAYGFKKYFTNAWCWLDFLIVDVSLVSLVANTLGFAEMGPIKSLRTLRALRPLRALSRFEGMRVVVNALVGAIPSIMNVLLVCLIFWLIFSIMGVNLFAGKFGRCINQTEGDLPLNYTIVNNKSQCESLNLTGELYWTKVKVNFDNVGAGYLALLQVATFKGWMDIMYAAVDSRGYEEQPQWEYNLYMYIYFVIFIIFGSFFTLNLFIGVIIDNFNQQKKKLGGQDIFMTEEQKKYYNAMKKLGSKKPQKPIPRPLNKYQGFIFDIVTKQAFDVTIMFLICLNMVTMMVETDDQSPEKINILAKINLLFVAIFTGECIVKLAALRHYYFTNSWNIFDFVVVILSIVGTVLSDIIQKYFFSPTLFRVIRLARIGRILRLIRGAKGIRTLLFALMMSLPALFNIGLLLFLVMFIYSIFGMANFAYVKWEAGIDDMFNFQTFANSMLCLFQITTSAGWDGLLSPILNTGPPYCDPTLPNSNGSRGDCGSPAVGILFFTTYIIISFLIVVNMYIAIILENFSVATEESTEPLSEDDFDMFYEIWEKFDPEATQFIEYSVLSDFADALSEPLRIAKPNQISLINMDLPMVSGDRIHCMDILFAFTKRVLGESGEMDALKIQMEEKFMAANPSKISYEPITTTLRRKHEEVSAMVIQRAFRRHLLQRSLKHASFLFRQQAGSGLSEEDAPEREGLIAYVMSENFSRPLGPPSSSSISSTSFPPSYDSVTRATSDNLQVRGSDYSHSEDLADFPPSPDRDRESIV

For `COC1C=CC=C(C)C(=O)NC2=CC(=O)C(NCCCCCC[P+](c3ccccc3)(c3ccccc3)c3ccccc3)=C(CC(C)CC(OC)C(O)C(C)C=C(C)C1OC(N)=O)C2=O.F[P-](F)(F)(F)(F)F` (stereo not drawn) [Gamitrinib], the pIC50 [1] was 4.48, the “Papp Efflux Ratio (ER)” value [2] was 5.77 and the “Papp, A>B” value [2] was 0.19 ×10⁻⁶ cm/s. The “Papp, B>A” value [2] was 1.094 ×10⁻⁶ cm/s, the “Pexact Efflux Ratio” value [2] was 5.54 and the “Pexact,A>B” value [2] was 0.197 ×10⁻⁶ cm/s. For the same compound, the “Pexact,B>A” value [2] was 1.092 ×10⁻⁶ cm/s, the “inhibition of Nav1.5 currents” value [3] was 22.3 ± 5.3% and the “inhibition of Kv4.3/KChIP2 currents” value [4] was 6.8 ± 2.2%.
